Drawing on ChEMBL document CHEMBL1150179, “The cytotoxic principles of Solanum incanum” (1990), this text covers EC50 for ten compounds.

In brackets after ≈: the same amount, converted by molar mass.

Test [1] is described as follows: Cytotoxicity against human PLC/PRF/5 cells by microassay. It is filed as functional. The settings on record: read-out: ED50 (the source's name).
Another test deals with KB. The experiment in a line: Cytotoxicity against human KB cells by microassay. It is filed as functional. The settings on record: read-out: ED50 (the source's name).

In the case of `CCC(=O)O[C@H]1CC[C@]2(C)[C@H]3CC=C4[C@@H]5[C@@H](C)[C@H](C)CC[C@]5(C(=O)O)CC[C@@]4(C)[C@]3(C)CC[C@H]2C1(C)C`, in test [1], the EC50 is 2.54 µg/mL (≈ 4.95 µM).

For the compound `C[C@H]1[C@H](C)CC[C@]2(C(=O)O)CC[C@]3(C)C(=CC[C@@H]4[C@@]5(C)CC[C@H](OC(=O)c6ccccc6)C(C)(C)[C@@H]5CC[C@]43C)[C@H]12`, the EC50 in test [1] is 6.89 µg/mL (≈ 12.3 µM).

With `CC[C@H](C[C@@H](O)[C@@H](C)[C@H]1CC[C@H]2C3=CC(=O)[C@H]4[C@H](C)[C@@H](OC(=O)c5ccccc5)CC[C@]4(C)[C@H]3CC[C@]12C)C(C)C` [CARPESTEROL], the EC50 in test [1] turned out to be 8.47 µg/mL (≈ 15 µM).

With `C[C@@H]1CC[C@@]2(NC1)O[C@H]1C[C@H]3[C@@H]4CC=C5C[C@@H](O[C@@H]6O[C@H](CO)[C@@H](O[C@@H]7O[C@@H](C)[C@H](O)[C@@H](O)[C@H]7O)[C@H](O)[C@H]6O[C@@H]6O[C@@H](C)[C@H](O)[C@@H](O)[C@H]6O)CC[C@]5(C)[C@H]4CC[C@]3(C)[C@H]1[C@@H]2C` [SOLAMARGINE], the EC50 in test [1] was 1.53 µg/mL (≈ 1.76 µM).

As for `CCCCCCCCCCCCCCCC(=O)O[C@H]1CC[C@]2(C)[C@H]3CC=C4[C@@H]5[C@@H](C)[C@H](C)CC[C@]5(C(=O)O)CC[C@@]4(C)[C@]3(C)CC[C@H]2C1(C)C`, the EC50 in test [1] is 3.54 µg/mL (≈ 5.09 µM).

Take `C[C@@H]1CC[C@]2(NC1)O[C@H]1C[C@H]3[C@@H]4CC=C5C[C@@H](O)CC[C@]5(C)[C@H]4CC[C@]3(C)[C@H]1[C@@H]2C` [SOLASODINE]: the results for the EC50 (in test [1]; in the test with KB) were 3.75 µg/mL (≈ 9.07 µM) and 3.74 µg/mL (≈ 9.04 µM), respectively.

For the compound `C/C=C/C(=O)O[C@H]1CC[C@]2(C)[C@H]3CC=C4[C@@H]5[C@@H](C)[C@H](C)CC[C@]5(C(=O)O)CC[C@@]4(C)[C@]3(C)CC[C@H]2C1(C)C`, in test [1], the EC50 stood at 2.59 µg/mL (≈ 4.94 µM).

`C[C@H]1[C@H](C)CC[C@]2(C(=O)O)CC[C@]3(C)C(=CC[C@@H]4[C@@]5(C)CC[C@H](OC(=O)/C=C/c6ccccc6)C(C)(C)[C@@H]5CC[C@]43C)[C@H]12`: in test [1], the EC50 is 7.24 µg/mL (≈ 12.3 µM).

Consider `C[C@H]1[C@H](C)CC[C@]2(C(=O)O)CC[C@]3(C)C(=CC[C@@H]4[C@@]5(C)CC[C@H](O)C(C)(C)[C@@H]5CC[C@]43C)[C@H]12` [URSOLIC ACID], for which the EC50 came out at 3.89 µg/mL (≈ 8.52 µM) in test [1] and 3.76 µg/mL (≈ 8.23 µM) in the test on KB.

In the case of `C[C@@H]1CC[C@@]2(NC1)O[C@H]1C[C@H]3[C@@H]4CC=C5C[C@@H](O[C@@H]6O[C@H](CO)[C@@H](O[C@@H]7O[C@@H](C)[C@H](O)[C@@H](O)[C@H]7O)[C@H](O)[C@H]6O)CC[C@]5(C)[C@H]4CC[C@]3(C)[C@H]1[C@@H]2C` [KHASIANINE], the EC50 in test [1] is 8.6 µg/mL (≈ 11.9 µM).
